Measured values published in PubChem BioAssay AID2742 (NMMLSC, 2010).
Activity calls are given as the source filed them.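 The calls were made as follows: active = fitted half-maximal concentration for changing background-corrected GFP signal at or below a set limit; inactive = the rest.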

Assay: TOR pathway reporter MEP2-GFP, concentration series – S. cerevisiae, flow cytometry GFP, MLPCN hits, dose response (AID 2742);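 also: GFP tag reports level of MEP2 protein as a downstream target of TOR signalling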
Conditions: S. cerevisiae MEP2-GFP strain, flow cytometry fluorescence, 3 h; at 33 µM (top of the series)

**Q.** For `COc1ccc2c(c1)c1nnc(SC)nc1n2C`, which GFP fluorescence (kMESF), higher = increase is on record?
**A.** The GFP fluorescence (kMESF), higher = increase was 1.9 kMESF (inactive).

**Q.** Which GFP fluorescence (kMESF), higher = increase does the source give for `COc1cc(NC(=O)c2cccc(C)c2)ccc1NC(=O)c1cc2ccccc2o1` here?
**A.** The GFP fluorescence (kMESF), higher = increase was 2.2 kMESF (inactive).

**Q.** Which GFP fluorescence (kMESF), higher = increase does the source give for `O=C1c2cccc3c([N+](=O)[O-])ccc(c23)C(=O)N1O` here?
**A.** Its GFP fluorescence (kMESF), higher = increase is 22.1 kMESF (inactive).

**Q.** Which GFP fluorescence (kMESF), higher = increase does the source give for `O=C(C#Cc1ccccc1)c1ccco1` here?
**A.** The GFP fluorescence (kMESF), higher = increase was 5.37 kMESF (inactive).

**Q.** With `O=C1NC(=O)N(Cc2ccco2)C(=O)/C1=C/c1ccc(-c2cccc([N+](=O)[O-])c2)o1` as the compound, how does the GFP fluorescence (kMESF), higher = increase read?
**A.** The GFP fluorescence (kMESF), higher = increase was 4.33 kMESF (inactive).

**Q.** With `COc1cccc(/C=C2\C(=O)N(c3cccc(C)c3)C(=O)c3ccccc32)c1` as the compound, how does the GFP fluorescence (kMESF), higher = increase read?
**A.** Its GFP fluorescence (kMESF), higher = increase is 4.32 kMESF (inactive).

**Q.** Which GFP fluorescence (kMESF), higher = increase does the source give for `CC(C)(C)c1cc(C(c2cccnc2)N2CCN(CCO)CC2)cc(C(C)(C)C)c1O` (configuration not stated) here?
**A.** Its GFP fluorescence (kMESF), higher = increase is -4.66 kMESF (inactive).

**Q.** For `C/C(=N\NC(=O)c1cc2ccccc2cc1O)c1ccccn1`, which GFP fluorescence (kMESF), higher = increase is on record?
**A.** Its GFP fluorescence (kMESF), higher = increase is 3.61 kMESF (inactive).

**Q.** Which GFP fluorescence (kMESF), higher = increase does the source give for `COc1ccc(N2CCN(C(=O)c3ccccc3)CC2)c([N+](=O)[O-])c1` here?
**A.** The GFP fluorescence (kMESF), higher = increase was 3.33 kMESF (inactive).

**Q.** For `O=[N+]([O-])c1ccc(Sc2nc3ccccc3o2)c([N+](=O)[O-])c1`, which GFP fluorescence (kMESF), higher = increase is on record?
**A.** The GFP fluorescence (kMESF), higher = increase was 2.65 kMESF (inactive).

**Q.** Which GFP fluorescence (kMESF), higher = increase does the source give for `CC(=O)NN1C(=O)/C(=C/c2ccc(Br)o2)SC1=S` here?
**A.** Its GFP fluorescence (kMESF), higher = increase is -0.17 kMESF (inactive).

**Q.** For `COc1ccc([C@]2(C(C)C)ON(c3ccccc3C(F)(F)F)C2=O)cc1`, which GFP fluorescence (kMESF), higher = increase is on record?
**A.** The GFP fluorescence (kMESF), higher = increase was 2.67 kMESF (inactive).

**Q.** For `C#CCOCCOCCOCCNc1nc(N2CCN(C(=O)CCCCCCCCCCNC(=O)[C@@H](CCC(=O)O)n3cc(CCCCCN)nn3)CC2)nc(N2CCN(C(=O)CCCCCCCCCCNC(=O)[C@H](CCCCN)n3cc(C[C@@H](C)CC)nn3)CC2)n1`, which GFP fluorescence (kMESF), higher = increase is on record?
**A.** The GFP fluorescence (kMESF), higher = increase was 3.84 kMESF (inactive).

**Q.** For `C[C@H]1C[C@@H](C)C(=O)[C@@H]([C@H](O)CC2CC(=O)NC(=O)C2)C1`, which GFP fluorescence (kMESF), higher = increase is on record?
**A.** Its GFP fluorescence (kMESF), higher = increase is 3.18 kMESF (inactive).

**Q.** Which GFP fluorescence (kMESF), higher = increase does the source give for `COc1ccc(C(=O)NC(=S)NNC(=O)c2cnccn2)cc1` here?
**A.** The GFP fluorescence (kMESF), higher = increase was 3.91 kMESF (inactive).

**Q.** For `CS(=O)(=O)c1nc(-c2ccccc2)cc(C(F)(F)F)n1`, which GFP fluorescence (kMESF), higher = increase is on record?
**A.** Its GFP fluorescence (kMESF), higher = increase is 7.24 kMESF (inactive).

**Q.** For `C=CCN1C(=O)/C(=C/c2ccc(-c3ccc(F)cc3)o2)SC1=S`, which GFP fluorescence (kMESF), higher = increase is on record?
**A.** Its GFP fluorescence (kMESF), higher = increase is 8.29 kMESF (inactive).

**Q.** For `Cc1c(C(=O)Nc2nc(-c3ccccn3)cs2)oc2ccccc12`, which GFP fluorescence (kMESF), higher = increase is on record?
**A.** Its GFP fluorescence (kMESF), higher = increase is 4.49 kMESF (inactive).

**Q.** With `N#C/C(=C\c1ccccn1)c1nc2ccccc2s1` as the compound, how does the GFP fluorescence (kMESF), higher = increase read?
**A.** The GFP fluorescence (kMESF), higher = increase was 58.7 kMESF (inactive).

**Q.** With `O=C(COc1ccccc1)NNC(=S)NC(=O)c1ccc(Cl)cc1Cl` as the compound, how does the GFP fluorescence (kMESF), higher = increase read?
**A.** The GFP fluorescence (kMESF), higher = increase was 4.07 kMESF (inactive).

**Q.** Which GFP fluorescence (kMESF), higher = increase does the source give for `O=C(Nc1ccc(Cl)cc1)ON=C1CCCC1` here?
**A.** Its GFP fluorescence (kMESF), higher = increase is 4.17 kMESF (inactive).

**Q.** Which GFP fluorescence (kMESF), higher = increase does the source give for `CCOC(=O)CSC1=NC(=O)/C(=C\c2ccc(Cl)cc2)S1` here?
**A.** The GFP fluorescence (kMESF), higher = increase was 4.12 kMESF (inactive).

**Q.** With `COc1cccc(N=Nc2ccc(O)c3ncccc23)c1` as the compound, how does the GFP fluorescence (kMESF), higher = increase read?
**A.** The GFP fluorescence (kMESF), higher = increase was 5.8 kMESF (inactive).

**Q.** Which GFP fluorescence (kMESF), higher = increase does the source give for `CCN(CC)c1ccc(/C=C2/C(=O)c3ccc(C(=O)O)cc3C2=O)cc1` here?
**A.** Its GFP fluorescence (kMESF), higher = increase is 3.08 kMESF (inactive).

**Q.** For `O=C(OCn1ncc(Br)c(Br)c1=O)c1c(F)cccc1F`, which GFP fluorescence (kMESF), higher = increase is on record?
**A.** The GFP fluorescence (kMESF), higher = increase was 4.49 kMESF (inactive).

**Q.** For `Cc1ccc(/C(N)=N/OC(=O)c2ccc(F)cc2)cc1`, which GFP fluorescence (kMESF), higher = increase is on record?
**A.** Its GFP fluorescence (kMESF), higher = increase is 2.2 kMESF (inactive).

**Q.** Which GFP fluorescence (kMESF), higher = increase does the source give for `CCCc1nnc(NC(=O)c2c(O)c3cccc4c3n(c2=O)CCC4)s1` here?
**A.** Its GFP fluorescence (kMESF), higher = increase is -1.47 kMESF (inactive).

**Q.** With `Cc1ccc(S(=O)(=O)Cc2cc(F)c([N+](=O)[O-])cc2[N+](=O)[O-])cc1` as the compound, how does the GFP fluorescence (kMESF), higher = increase read?
**A.** Its GFP fluorescence (kMESF), higher = increase is 0.65 kMESF (inactive).

**Q.** Which GFP fluorescence (kMESF), higher = increase does the source give for `CCCN1CCc2c(sc(NC(=S)NC(=O)c3ccccc3)c2C#N)C1` here?
**A.** Its GFP fluorescence (kMESF), higher = increase is 4.04 kMESF (inactive).

**Q.** For `O=C(/C=C/c1cc(Br)ccc1O)c1ccco1`, which GFP fluorescence (kMESF), higher = increase is on record?
**A.** The GFP fluorescence (kMESF), higher = increase was 6.67 kMESF (inactive).

**Q.** For `CN(C)NC(=S)Nc1ccc(S(=O)(=O)N2CCCCC2)cc1`, which GFP fluorescence (kMESF), higher = increase is on record?
**A.** Its GFP fluorescence (kMESF), higher = increase is 1.92 kMESF (inactive).

**Q.** With `O=C(Nc1ccc(Cl)cc1Cl)c1cccc(N2C(=O)C=CC2=O)c1` as the compound, how does the GFP fluorescence (kMESF), higher = increase read?
**A.** Its GFP fluorescence (kMESF), higher = increase is 4.39 kMESF (inactive).

**Q.** For `Cc1cc(C)c(S(=O)(=O)N2CCC(C(=O)NCc3ccc(Cl)cc3Cl)CC2)c(C)c1`, which GFP fluorescence (kMESF), higher = increase is on record?
**A.** The GFP fluorescence (kMESF), higher = increase was 4.68 kMESF (inactive).

**Q.** Which GFP fluorescence (kMESF), higher = increase does the source give for `O=C1C(Cl)=C(NCCc2ccccc2)C(=O)N1CCc1ccccc1` here?
**A.** The GFP fluorescence (kMESF), higher = increase was 2.91 kMESF (inactive).

**Q.** Which GFP fluorescence (kMESF), higher = increase does the source give for `CCC(=O)Nc1ccc(NC(=O)c2cc3ccccc3o2)c(OC)c1` here?
**A.** Its GFP fluorescence (kMESF), higher = increase is 2.4 kMESF (inactive).

**Q.** Which GFP fluorescence (kMESF), higher = increase does the source give for `COc1ccccc1N=Cc1nc(-c2ccccc2)oc1OC(C)=O` here?
**A.** The GFP fluorescence (kMESF), higher = increase was 4.52 kMESF (inactive).

**Q.** For `COc1ccccc1-c1nc2s/c(=C\c3cccs3)c(=O)n2n1`, which GFP fluorescence (kMESF), higher = increase is on record?
**A.** The GFP fluorescence (kMESF), higher = increase was 5.28 kMESF (inactive).

**Q.** With `COc1ccc(C(=O)/C=C2/C(=O)Nc3ccccc32)cc1` as the compound, how does the GFP fluorescence (kMESF), higher = increase read?
**A.** Its GFP fluorescence (kMESF), higher = increase is 4.25 kMESF (inactive).

**Q.** Which GFP fluorescence (kMESF), higher = increase does the source give for `Cc1cc(C)nc(S/C=C/C(=O)c2ccccc2)n1` here?
**A.** Its GFP fluorescence (kMESF), higher = increase is 3.2 kMESF (inactive).

**Q.** With `C=CCOc1cccc(C(=O)/C=C2/C(=O)Nc3ccccc32)c1` as the compound, how does the GFP fluorescence (kMESF), higher = increase read?
**A.** The GFP fluorescence (kMESF), higher = increase was 3.41 kMESF (inactive).

**Q.** For `CCCOc1ccc(C(=O)NNC(=S)NC(=O)c2ccco2)cc1`, which GFP fluorescence (kMESF), higher = increase is on record?
**A.** The GFP fluorescence (kMESF), higher = increase was 4.58 kMESF (inactive).

**Q.** With `O=S1(=O)C=C(Sc2nc3ccccc3s2)c2ccccc21` as the compound, how does the GFP fluorescence (kMESF), higher = increase read?
**A.** Its GFP fluorescence (kMESF), higher = increase is 5.18 kMESF (inactive).
